In patent publication US20260199323A1, “LIGAND COMPOUNDS FOR E3 UBIQUITIN LIGASE, PROTEIN DEGRADERS DEVELOPED ON BASIS OF LIGAND COMPOUNDS, AND USES THEREOF” (GLUETACS THERAPEUTICS (SHANGHAI) CO., LTD., priority 2021, published 2026):
Read-outs that look alike come from different tables or passages of the source. Each block holds one compound with its values, some of them ahead of it.

Tests used:
[1] = test system: MDA-MB-231; assay: CCK-8 tumor cell proliferation, MDA-MB-231; assay type: cell-based, Human; settings: Homo sapiens, MDA-MB-231, read-out: IC50 inhibiting proliferation of tumor cells, MDA-MB-231
Procedure, shortened: (§1)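 Cell viability (CCK-8) after compound exposure; IC50 calculated. Cells seeded, treated after 24 h, maximum dose 10 μM, 5-fold serial dilutions over 10 concentrations.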

[2] = test system: NCI-H1975; assay: CCK-8 tumor cell proliferation, NCI-H1975; assay type: cell-based, Human; settings: for IC50: Homo sapiens, Table 15, ALK inhibitor based, NCI-H1975, read-out: IC50 inhibiting proliferation of tumor cells, NCI-H1975; for IC50 for inhibiting the proliferation of tumor cells, H1975: Table 11, designed based on EGFR inhibitors
Procedure: (§2) The tumor cells used herein were cultured in a cell culture medium listed in table 4 at 37° C. in an incubator with 5% CO2. Prior to experimentation, all cells used were correctly identified by STR profiling, and tested negative for mycoplasma through routine screenings.
(§3) IC50 values of the compounds of the present disclosure (including the compounds in Tables 1 and 3, and compounds of examples) were measured using the Meilun Cell Counting Kit-8 kit from Dalian Meilun Biotech Co., Ltd. Assay details are as follows: tumor cells were seeded in a 96-well plate at a density listed in Table 5. After 24 h, 100 μL of the inoculated cells were treated with 0.5 μL of the compounds of the present disclosure (including the compounds in Tables 1 and 3, and compounds of examples) at 10 different successively decreasing concentrations (starting at the highest concentration of 10 μM; 5-fold serial dilutions). After the cells were treated with the compounds of the present disclosure for a period of time, the cell viability detection reagent was added to the culture medium for cell viability assessment according to the instructions provided with the CCK-8 kit. […] The growth inhibition of the compounds of the present disclosure on cells was plotted by Prism Graphpad software, and the IC50 values of the compounds of the present disclosure were calculated therefrom.

[3] = test system: PC-9; assay: CCK-8 tumor cell proliferation, PC-9; assay type: cell-based, Human; settings: Homo sapiens, PC-9, read-out: IC50 inhibiting proliferation of tumor cells, PC-9
[4] = test system: SR; assay: CCK-8 tumor cell proliferation, SR; assay type: cell-based, Human; settings: Homo sapiens; Table 15, ALK inhibitor based; SR; read-out: IC50 inhibiting proliferation of tumor cells, SR
Procedure, shortened: as §1

[5] = test system: CCRF-CEM; assay: CCK-8 tumor cell proliferation, CCRF-CEM; assay type: cell-based, Human; set-up: IC50 for inhibiting the proliferation of tumor cells, CCRF-CEM: scale not given here; settings: for IC50: Homo sapiens, Table 18, FAK inhibitor based, CCRF-CEM, read-out: IC50 inhibiting proliferation of tumor cells, CCRF-CEM
Procedure, shortened: as §1

[6] = test system: Vcap; assay: CCK-8 tumor cell proliferation, Vcap; assay type: cell-based, Human; settings: for IC50: Homo sapiens, VCaP, Table 18, FAK inhibitor based, Vcap, read-out: IC50 inhibiting proliferation of tumor cells, Vcap
Procedure: as §2, §3

[7] = test system: Mino; assay: CCK-8 tumor cell proliferation, Mino; assay type: cell-based, Human; settings: Homo sapiens; Table 18, FAK inhibitor based; Mino; read-out: IC50 inhibiting proliferation of tumor cells, Mino
Procedure, shortened: as §1

[8] = test system: SW620; assay: CCK-8 tumor cell proliferation, SW620; assay type: cell-based, Human; settings: Homo sapiens, SW-620; Table 18, FAK inhibitor based; SW620; read-out: IC50 inhibiting proliferation of tumor cells, SW620
Procedure, shortened: as §1

[9] = test system: MM.1S; assay: CCK-8 tumor cell proliferation, MM.1S; assay type: cell-based; settings: Homo sapiens, MM1.S; Table 18, FAK inhibitor based; MM.1S; read-out: IC50 inhibiting proliferation of tumor cells, MM.1S
Procedure: as §2, §3

[10] = test system: CAL-62; assay: CCK-8 tumor cell proliferation, CAL-62; assay type: cell-based, Human; set-up: IC50 for inhibiting the proliferation of tumor cells, CAL-62: scale not given here; settings: Table 11, designed based on EGFR inhibitors; 72 h
Procedure, shortened: as §1

[11] = Table 7, designed based on BTK inhibitors, 96 h

IC50 for inhibiting the proliferation of tumor cells, H1975 ([2]; 96 h): A+
Compound: O=C1CCC(N2Cc3cc(CN4CCN(c5ccc(-c6ccc7c(c6)C(=O)N(C(C(=O)Nc6nccs6)c6cc(F)ccc6O)C7)cc5)CC4)ccc3C2=O)C(=O)N1 (stereo not drawn) [GT-03503, 2-(6-(4-(4-((2-(2,6-dioxopiperidin-3-yl)-1-oxoisoindolin-5-yl)methyl)piperazin-1-yl)phenyl)-1-oxoisoindolin-2-yl)-2-(5-fluoro-2-hydroxyphenyl)-N-(thiazol-2-yl)acetamide]

IC50 ([1]; Table 15, ALK inhibitor based): 500 to 1000 nM | IC50 [2]: 1000 to 5000 nM | IC50 ([3]; Table 15, ALK inhibitor based): 500 to 1000 nM | IC50 [4]: < 50 nM
Compound: Cc1cc(Nc2ncc(Cl)c(Nc3ccccc3S(=O)(=O)C(C)C)n2)c(OC(C)C)cc1N1CCC(N(C)Cc2ccc3c(c2)CN(C2CCC(=O)NC2=O)C3=O)CC1 (stereo not drawn) [GT-03530, 3-(5-(((1-(4-((5-chloro-4-((2-(isopropylsulfonyl)phenyl)amino)pyrimidin-2-yl)amino)-5-isopropoxy-2-methylphenyl)piperidin-4-yl)(methyl)amino)methyl)-1-oxoisoindolin-2-yl)piperidine-2,6-dione]

IC50 [5]: 100 to 500 nM | IC50 [7]: 100 to 500 nM | IC50 ([1]; Table 18, FAK inhibitor based): < 50 nM | IC50 ([3]; Table 18, FAK inhibitor based): 1000 to 5000 nM | IC50 [6]: 100 to 500 nM | IC50 [8]: 500 to 1000 nM
Compound: CN(c1nccnc1CNc1nc(Nc2ccc(N3CCC(N4CCN(Cc5ccc6c(c5)CN(C5CCC(=O)NC5=O)C6=O)CC4)CC3)cc2)ncc1C(F)(F)F)S(C)(=O)=O (stereo not drawn) [GT-03706, N-(3-(((2-((4-(4-(4-((2-(2,6-dioxopiperidin-3-yl)-1-oxoisoindolin-5-yl)methyl)piperazin-1-yl)piperidin-1-yl)phenyl)amino)-5-(trifluoromethyl)pyrimidin-4-yl)amino)methyl)pyrazin-2-yl)-N-methylmethanesulfonamide]

IC50 [5]: < 50 nM | IC50 [7]: < 50 nM | IC50 ([1]; Table 18, FAK inhibitor based): < 50 nM | IC50 [9]: < 50 nM | IC50 ([3]; Table 18, FAK inhibitor based): 1000 to 5000 nM | IC50 [6]: < 50 nM | IC50 [8]: < 50 nM
Compound: CNC(=O)c1ccccc1Nc1cc(Nc2ccc(N3CCN(Cc4cc5c(cc4F)C(=O)N(C4CCC(=O)NC4=O)C5)CC3)cc2OC)ncc1C(F)(F)F (stereo not drawn) [GT-03716, 2-((2-((4-(4-((2-(2,6-dioxopiperidin-3-yl)-6-fluoro-1-oxoisoindolin-5-yl)methyl)piperazin-1-yl)-2-methoxyphenyl)amino)-5-(trifluoromethyl)pyridin-4-yl)amino)-N-methylbenzamide]

IC50 for inhibiting the proliferation of tumor cells, H1975 ([2]; 96 h): A+
Compound: COc1cc(N2CCC(N(C)Cc3cc4c(cc3F)C(=O)N(C3CCC(=O)NC3=O)C4)CC2)c(C)cc1Nc1ncc(Br)c(Nc2ccc3nccnc3c2P(C)(C)=O)n1 (stereo not drawn) [GT-03926, 3-(5-(((1-(4-((5-bromo-4-((5-(dimethylphosphoryl)quinoxalin-6-yl)amino)pyrimidin-2-yl)amino)-5-methoxy-2-methylphenyl)piperidin-4-yl)(methyl)amino)methyl)-6-fluoro-1-oxoisoindolin-2-yl)piperidine-2,6-dione]

Second part, the compound before the results:

Compound: C[C@@H](Oc1cc(-c2cnn(C3CCN(Cc4ccc5c(c4)CN(C4CCC(=O)NC4=O)C5=O)CC3)c2)cnc1N)c1c(Cl)ccc(F)c1Cl (stereo partly drawn) [GT-02974, 3-(5-((4-(4-(6-amino-5-((R)-1-(2,6-dichloro-3-fluorophenyl)ethoxy)pyridin-3-yl)-1H-pyrazol-1-yl)piperidin-1-yl)methyl)-1-oxoisoindolin-2-yl)piperidine-2,6-dione]
IC50 ([1]; Table 15, ALK inhibitor based): 1000 to 5000 nM | IC50 [2]: 1000 to 5000 nM | IC50 ([3]; Table 15, ALK inhibitor based): 1000 to 5000 nM | IC50 [4]: 50 to 100 nM

Compound: Nc1ncnc2c1c(-c1ccc(Oc3ccccc3)cc1)nn2C1CCN(Cc2cc(F)c3c(c2)CN(C2CCC(=O)NC2=O)C3=O)CC1 (stereo not drawn) [GT-03473, 3-(5-((4-(4-amino-3-(4-phenoxyphenyl)-1H-pyrazolo[3,4-d]pyrimidin-1-yl)piperidin-1-yl)methyl)-7-fluoro-1-oxoisoindolin-2-yl)piperidine-2,6-dione]
IC50 for inhibiting the proliferation of tumor cells, CCRF-CEM [5, 11]: A+ | IC50 for inhibiting the proliferation of tumor cells, NCI-H1975 [2, 11]: A+ | IC50 for inhibiting the proliferation of tumor cells, Vcap [6, 11]: A+

Compound: CN(Cc1ccc2c(c1)CN(C1CCC(=O)NC1=O)C2=O)C1CCN(c2ccc(Nc3ncc(C(F)(F)F)c(NCc4nccnc4N(C)S(C)(=O)=O)n3)cc2)CC1 (stereo not drawn) [GT-03705, N-(3-(((2-((4-(4-(((2-(2,6-dioxopiperidin-3-yl)-1-oxoisoindolin-5-yl)methyl)(methyl)amino)piperidin-1-yl)phenyl)amino)-5-(trifluoromethyl)pyrimidin-4-yl)amino)methyl)pyrazin-2-yl)-N-methylmethanesulfonamide]
IC50 [5]: 50 to 100 nM | IC50 [7]: < 50 nM | IC50 ([1]; Table 18, FAK inhibitor based): < 50 nM | IC50 ([3]; Table 18, FAK inhibitor based): 1000 to 5000 nM | IC50 [6]: 100 to 500 nM | IC50 [8]: 100 to 500 nM

Compound: CN(Cc1ccc2c(c1F)CN(C1CCC(=O)NC1=O)C2=O)C1CCN(c2ccc(Nc3ncc4nc(Nc5ccccc5)n(C5CCCC5)c4n3)cc2)CC1 (stereo not drawn) [GT-03858, 3-(5-(((1-(4-((9-cyclopentyl-8-(phenylamino)-9H-purin-2-yl)amino)phenyl)piperidin-4-yl)(methyl)amino)methyl)-4-fluoro-1-oxoisoindolin-2-yl)piperidine-2,6-dione]
IC50 for inhibiting the proliferation of tumor cells, H1975 ([2]; 96 h): A+

Compound: COc1cc(N2CCC(N(C)Cc3ccc4c(c3)CN(C3CCC(=O)NC3=O)C4=O)CC2)c(C)cc1Nc1ncc(Br)c(Nc2ccc3nccnc3c2P(C)(C)=O)n1 (stereo not drawn) [GT-03924, 3-(5-(((1-(4-((5-bromo-4-((5-(dimethylphosphoryl)quinoxalin-6-yl)amino)pyrimidin-2-yl)amino)-5-methoxy-2-methylphenyl)piperidin-4-yl)(methyl)amino)methyl)-1-oxoisoindolin-2-yl)piperidine-2,6-dione]
IC50 for inhibiting the proliferation of tumor cells, H1975 ([2]; 96 h): A+ | IC50 for inhibiting the proliferation of tumor cells, CAL-62 [10]: A+

Compound: COc1cc(N2CCC(N(C)Cc3ccc4c(c3F)CN(C3CCC(=O)NC3=O)C4=O)CC2)c(C)cc1Nc1ncc(Br)c(Nc2ccc3nccnc3c2P(C)(C)=O)n1 (stereo not drawn) [GT-03925, 3-(5-(((1-(4-((5-bromo-4-((5-(dimethylphosphoryl)quinoxalin-6-yl)amino)pyrimidin-2-yl)amino)-5-methoxy-2-methylphenyl)piperidin-4-yl)(methyl)amino)methyl)-4-fluoro-1-oxoisoindolin-2-yl)piperidine-2,6-dione]
IC50 for inhibiting the proliferation of tumor cells, H1975 ([2]; 96 h): A+ | IC50 for inhibiting the proliferation of tumor cells, CAL-62 [10]: A+

Compound: COc1cc(N2CCC(N(C)Cc3cc(F)c4c(c3)CN(C3CCC(=O)NC3=O)C4=O)CC2)c(C)cc1Nc1ncc(Br)c(Nc2ccc3nccnc3c2P(C)(C)=O)n1 (stereo not drawn) [GT-03927, 3-(5-(((1-(4-((5-bromo-4-((5-(dimethylphosphoryl)quinoxalin-6-yl)amino)pyrimidin-2-yl)amino)-5-methoxy-2-methylphenyl)piperidin-4-yl)(methyl)amino)methyl)-7-fluoro-1-oxoisoindolin-2-yl)piperidine-2,6-dione]
IC50 for inhibiting the proliferation of tumor cells, H1975 ([2]; 96 h): A+ | IC50 for inhibiting the proliferation of tumor cells, CAL-62 [10]: A+
